The test system of experiment [1] is Ab 927.
Experiment [2] relates to Ab 927. The experiment is described as follows: Radioimmunoassay cross-reactivity / displacement of cholylglycyl-125I-histamine tracer (Specificity of Tracer and Antibody).
Experiment [3] deals with antibodies from rabbits (anti BSA-cholylglycine conjugate), Ab 927. The experiment is described as follows: Antibody titer curves using cholylglycyl-125I-histamine (or 3H-cholylglycine) tracer. It is filed as binding, rabbit. As to the method:
Young adult male New Zealand white rabbits were immunized at multiple sites on the back at bi-weekly intervals using 1.0 ml of BSA-cholylglycine conjugate (50 μg) emulsified with an equal volume of Freund's adjuvant. Serum was harvested every 2 weeks beginning one month after the initial immunization. […] 1 mg bovine gamma globulin was included in each tube. […] The supernate (bound) was decanted into another tube and both the charcoal (free) and supernate (bound) tubes were counted in a γ-spectrometer (Elscint). Results were expressed as the bound/free (B/F) ratio. A standard curve was constructed and unknowns were quantitated from a standard curve run with each assay. Antibodies from six different rabbits were produced and tested.

In the experiment with Ab 927 [1], `C[C@H](CCC(=O)O)[C@H]1CC[C@H]2[C@@H]3CC[C@@H]4C[C@H](O)CC[C@]4(C)[C@H]3CC[C@]12C` [Lithocholic acid] had an activity of 2%.
In the case of `C[C@H](CCC(=O)NCC(=O)NCCc1c[nH]cn1)[C@H]1CC[C@H]2[C@@H]3[C@H](O)C[C@@H]4C[C@H](O)CC[C@]4(C)[C@H]3C[C@H](O)[C@]12C` [cholylglycylhistamine], the “Amount required for displacement relative to other bile salts (fold less)” value in the experiment with Ab 927 [2] (FIG. 4, less than other bile salts) was “approximately 10 fold”. Further, in the experiment on Ab 927 [2] (explanation for sensitivity not rising with titer), the “affinity (in words)” value is listed as “greater affinity”.
For the compound “Cholylglycyl-^125 I-histamine [cholylglycyl-125I-histamine]”, the “initial B/F (bound/free ratio)” value in experiment [3] (1:100 dilution, approximately 3000 CPM cholylglycyl-125I-histamine, four antibodies) is on record as 10.5 to 14.2. Also, the Non-specific binding in experiment [3] (CPM in supernate without antibody, unchanged as long as 6 months after iodination) was 2-4%. For the same compound, the binding of tracer in experiment [3] (corresponds to B/F 14.2, 1:100 dilution) worked out at 93%. Moreover, in the experiment with Ab 927 [2], the “specificity (in words)” value is “maintain a specificity toward the conjugated bile salts, particularly cholate and chenodeoxycholate conjugates”.
